Reference: ChEMBL document CHEMBL1130913, “Synthesis and antibacterial in vitro activity of novel analogues of nematophin” (1998)
Values after ≈ are worked out from the molar mass of the structure shown.

Tested on: Staphylococcus aureus
Assay: In vitro inhibitory activity in iso sensitest agar against Staphylococcus aureus strain ATCC 6538 in addition with 5%blood
Assay type: functional

SMILES | MIC [µg/mL]
CCC(C)C(=O)C(=O)NCCc1c[nH]c2ccccc12 (configuration not stated) | > 128
CCC(C)C(=O)C(=O)NCCc1cn(C)c2ccccc12 (configuration not stated) | > 128

Tested on: Staphylococcus aureus
Assay: In vitro inhibitory activity in iso sensitest agar against Staphylococcus aureus strain ATCC 6538 in addition with 0.5%serum

SMILES | MIC [µg/mL]
CCC(C)C(=O)C(=O)NCCc1cn(C)c2ccccc12 (configuration not stated) | 2 (≈ 6.98 µM)

Tested on: Staphylococcus intermedius
Assay: In vitro inhibitory activity in iso sensitest agar against Staphylococcus intermedius strain ATCC 9503
Assay type: functional

SMILES | MIC [µg/mL]
CCC(C)C(=O)C(=O)NCCc1c[nH]c2ccccc12 (configuration not stated) | 2 (≈ 7.34 µM)
CCC(C)C(=O)C(=O)NCCc1cn(C)c2ccccc12 (configuration not stated) | 0.5 (≈ 1.75 µM)

Tested on: Staphylococcus aureus
Assay: In vitro inhibitory activity in iso sensitest agar against Staphylococcus aureus strain ATCC 6538 in addition with 0.5%blood
Assay type: functional

SMILES | MIC [µg/mL]
CCC(C)C(=O)C(=O)NCCc1c[nH]c2ccccc12 (configuration not stated) | > 128
CCC(C)C(=O)C(=O)NCCc1cn(C)c2ccccc12 (configuration not stated) | 0.06 (≈ 0.21 µM)

Tested on: Staphylococcus intermedius
Assay: In vitro inhibitory activity in iso sensitest agar against Staphylococcus intermedius strain ATCC 29663 in addition with 5%serum
Assay type: functional

SMILES | MIC [µg/mL]
CCC(C)C(=O)C(=O)NCCc1c[nH]c2ccccc12 (configuration not stated) | 16 (≈ 58.7 µM)
CCC(C)C(=O)C(=O)NCCc1cn(C)c2ccccc12 (configuration not stated) | 32 (≈ 112 µM)

Tested on: Staphylococcus hyicus
Assay: In vitro inhibitory activity in iso sensitest agar against Staphylococcus hyicus strain ATCC 9622 in addition with 0.5%serum
Assay type: functional

SMILES | MIC [µg/mL]
CCC(C)C(=O)C(=O)NCCc1c[nH]c2ccccc12 (configuration not stated) | 1 (≈ 3.67 µM)
CCC(C)C(=O)C(=O)NCCc1cn(C)c2ccccc12 (configuration not stated) | 0.125 (≈ 0.436 µM)

Tested on: Staphylococcus hyicus
Assay: In vitro inhibitory activity in iso sensitest agar against Staphylococcus hyicus strain ATCC 9621 in addition with 5%blood
Assay type: functional

SMILES | MIC [µg/mL]
CCC(C)C(=O)C(=O)NCCc1c[nH]c2ccccc12 (configuration not stated) | > 128
CCC(C)C(=O)C(=O)NCCc1cn(C)c2ccccc12 (configuration not stated) | > 128

Tested on: Staphylococcus aureus
Assay: In vitro inhibitory activity in iso sensitest agar against Staphylococcus aureus strain ATCC 6538
Assay type: functional

SMILES | MIC [µg/mL]
CCC(C)C(=O)C(=O)NCCc1c[nH]c2ccccc12 (configuration not stated) | 0.25 (≈ 0.918 µM)
CCC(C)C(=O)C(=O)NCCc1cn(C)c2ccccc12 (configuration not stated) | 0.015 (≈ 0.0524 µM)

Tested on: Staphylococcus hyicus
Assay: In vitro inhibitory activity in iso sensitest agar against Staphylococcus hyicus strain ATCC 9622
Assay type: functional

SMILES | MIC [µg/mL]
CCC(C)C(=O)C(=O)NCCc1c[nH]c2ccccc12 (configuration not stated) | 0.5 (≈ 1.84 µM)
CCC(C)C(=O)C(=O)NCCc1cn(C)c2ccccc12 (configuration not stated) | 0.06 (≈ 0.21 µM)

Tested on: Staphylococcus hyicus
Assay: In vitro inhibitory activity in iso sensitest agar against Staphylococcus hyicus strain ATCC 9622 in addition with 5%serum
Assay type: functional

SMILES | MIC [µg/mL]
CCC(C)C(=O)C(=O)NCCc1c[nH]c2ccccc12 (configuration not stated) | > 64
CCC(C)C(=O)C(=O)NCCc1cn(C)c2ccccc12 (configuration not stated) | > 32

Tested on: Staphylococcus hyicus
Assay: In vitro inhibitory activity in iso sensitest agar against Staphylococcus hyicus strain ATCC 9621 in addition with 0.5%serum
Assay type: functional

SMILES | MIC [µg/mL]
CCC(C)C(=O)C(=O)NCCc1c[nH]c2ccccc12 (configuration not stated) | > 128
CCC(C)C(=O)C(=O)NCCc1cn(C)c2ccccc12 (configuration not stated) | 0.25 (≈ 0.873 µM)

Tested on: Staphylococcus aureus
Assay: In vitro inhibitory activity in iso sensitest agar against Staphylococcus aureus strain ATCC 6538 in addition with 5%blood

SMILES | MIC [µg/mL]
CCC(C)C(=O)C(=O)NCCc1cn(C)c2ccccc12 (configuration not stated) | > 128

Tested on: Staphylococcus aureus
Assay: In vitro inhibitory activity in iso sensitest agar against Staphylococcus aureus strain ATCC 29213 in addition with 5%serum
Assay type: functional

SMILES | MIC [µg/mL]
CCC(C)C(=O)C(=O)NCCc1c[nH]c2ccccc12 (configuration not stated) | 4 (≈ 14.7 µM)
CCC(C)C(=O)C(=O)NCCc1cn(C)c2ccccc12 (configuration not stated) | 16 (≈ 55.9 µM)

Tested on: Staphylococcus intermedius
Assay: In vitro inhibitory activity in iso sensitest agar against Staphylococcus intermedius strain ATCC 9503 in addition with 5%serum
Assay type: functional

SMILES | MIC [µg/mL]
CCC(C)C(=O)C(=O)NCCc1c[nH]c2ccccc12 (configuration not stated) | 16 (≈ 58.7 µM)

Tested on: Staphylococcus aureus
Assay: In vitro inhibitory activity in iso sensitest agar against Staphylococcus aureus strain ATCC 25923
Assay type: functional

SMILES | MIC [µg/mL]
CCC(C)C(=O)C(=O)NCCc1c[nH]c2ccccc12 (configuration not stated) | 0.125 (≈ 0.459 µM)
CCC(C)C(=O)C(=O)NCCc1cn(C)c2ccccc12 (configuration not stated) | 0.015 (≈ 0.0524 µM)

Tested on: Staphylococcus aureus
Assay: In vitro inhibitory activity in iso sensitest agar against Staphylococcus aureus strain ATCC 6538 in addition with 5%serum

SMILES | MIC [µg/mL]
CCC(C)C(=O)C(=O)NCCc1cn(C)c2ccccc12 (configuration not stated) | > 32

Tested on: Staphylococcus intermedius
Assay: In vitro inhibitory activity in iso sensitest agar against Staphylococcus intermedius strain ATCC 9503 in addition with 0.5%blood
Assay type: functional

SMILES | MIC [µg/mL]
CCC(C)C(=O)C(=O)NCCc1c[nH]c2ccccc12 (configuration not stated) | 1 (≈ 3.67 µM)
CCC(C)C(=O)C(=O)NCCc1cn(C)c2ccccc12 (configuration not stated) | 0.06 (≈ 0.21 µM)

Tested on: Staphylococcus intermedius
Assay: In vitro inhibitory activity in iso sensitest agar against Staphylococcus intermedius strain ATCC 9503 in addition with 0.5%serum
Assay type: functional

SMILES | MIC [µg/mL]
CCC(C)C(=O)C(=O)NCCc1c[nH]c2ccccc12 (configuration not stated) | 8 (≈ 29.4 µM)

Tested on: Staphylococcus hyicus
Assay: In vitro inhibitory activity in iso sensitest agar against Staphylococcus hyicus strain ATCC 9622 in addition with 5%blood
Assay type: functional

SMILES | MIC [µg/mL]
CCC(C)C(=O)C(=O)NCCc1c[nH]c2ccccc12 (configuration not stated) | > 128
CCC(C)C(=O)C(=O)NCCc1cn(C)c2ccccc12 (configuration not stated) | > 128

Tested on: Staphylococcus aureus
Assay: In vitro inhibitory activity in iso sensitest agar against Staphylococcus aureus strain ATCC 6538 in addition with 5%serum
Assay type: functional

SMILES | MIC [µg/mL]
CCC(C)C(=O)C(=O)NCCc1c[nH]c2ccccc12 (configuration not stated) | > 64
CCC(C)C(=O)C(=O)NCCc1cn(C)c2ccccc12 (configuration not stated) | > 32

Tested on: Staphylococcus hyicus
Assay: In vitro inhibitory activity in iso sensitest agar against Staphylococcus hyicus strain ATCC 9621
Assay type: functional

SMILES | MIC [µg/mL]
CCC(C)C(=O)C(=O)NCCc1c[nH]c2ccccc12 (configuration not stated) | 1 (≈ 3.67 µM)
CCC(C)C(=O)C(=O)NCCc1cn(C)c2ccccc12 (configuration not stated) | 0.06 (≈ 0.21 µM)

Tested on: Staphylococcus hyicus
Assay: In vitro inhibitory activity in iso sensitest agar against Staphylococcus hyicus strain ATCC 9622 in addition with 0.5%blood
Assay type: functional

SMILES | MIC [µg/mL]
CCC(C)C(=O)C(=O)NCCc1c[nH]c2ccccc12 (configuration not stated) | 0.125 (≈ 0.459 µM)
CCC(C)C(=O)C(=O)NCCc1cn(C)c2ccccc12 (configuration not stated) | 0.03 (≈ 0.105 µM)

Tested on: Staphylococcus aureus
Assay: In vitro inhibitory activity in iso sensitest agar against Staphylococcus aureus strain ATCC 25923 in addition with 5%serum
Assay type: functional

SMILES | MIC [µg/mL]
CCC(C)C(=O)C(=O)NCCc1c[nH]c2ccccc12 (configuration not stated) | 4 (≈ 14.7 µM)
CCC(C)C(=O)C(=O)NCCc1cn(C)c2ccccc12 (configuration not stated) | 16 (≈ 55.9 µM)

Tested on: Staphylococcus hyicus
Assay: In vitro inhibitory activity in iso sensitest agar against Staphylococcus hyicus strain ATCC 9621 in addition with 5%serum
Assay type: functional

SMILES | MIC [µg/mL]
CCC(C)C(=O)C(=O)NCCc1c[nH]c2ccccc12 (configuration not stated) | > 64
CCC(C)C(=O)C(=O)NCCc1cn(C)c2ccccc12 (configuration not stated) | > 32

Tested on: Staphylococcus intermedius
Assay: In vitro inhibitory activity in iso sensitest agar against Staphylococcus intermedius strain ATCC 29663
Assay type: functional

SMILES | MIC [µg/mL]
CCC(C)C(=O)C(=O)NCCc1c[nH]c2ccccc12 (configuration not stated) | 8 (≈ 29.4 µM)
CCC(C)C(=O)C(=O)NCCc1cn(C)c2ccccc12 (configuration not stated) | 2 (≈ 6.98 µM)

Tested on: Staphylococcus hyicus
Assay: In vitro inhibitory activity in iso sensitest agar against Staphylococcus hyicus strain ATCC 9621 in addition with 0.5%blood
Assay type: functional

SMILES | MIC [µg/mL]
CCC(C)C(=O)C(=O)NCCc1c[nH]c2ccccc12 (configuration not stated) | 0.25 (≈ 0.918 µM)
CCC(C)C(=O)C(=O)NCCc1cn(C)c2ccccc12 (configuration not stated) | 0.03 (≈ 0.105 µM)

Tested on: Staphylococcus aureus
Assay: In vitro inhibitory activity in iso sensitest agar against Staphylococcus aureus strain ATCC 6538 in addition with 0.5%serum
Assay type: functional

SMILES | MIC [µg/mL]
CCC(C)C(=O)C(=O)NCCc1c[nH]c2ccccc12 (configuration not stated) | > 128
CCC(C)C(=O)C(=O)NCCc1cn(C)c2ccccc12 (configuration not stated) | 0.25 (≈ 0.873 µM)

Tested on: Staphylococcus aureus
Assay: In vitro inhibitory activity in iso sensitest agar against Staphylococcus aureus strain ATCC 29213
Assay type: functional

SMILES | MIC [µg/mL]
CCC(C)C(=O)C(=O)NCCc1c[nH]c2ccccc12 (configuration not stated) | 0.125 (≈ 0.459 µM)
CCC(C)C(=O)C(=O)NCCc1cn(C)c2ccccc12 (configuration not stated) | 0.015 (≈ 0.0524 µM)

Tested on: Staphylococcus intermedius
Assay: In vitro inhibitory activity in iso sensitest agar against Staphylococcus intermedius strain ATCC 9503 in addition with 5%blood
Assay type: functional

SMILES | MIC [µg/mL]
CCC(C)C(=O)C(=O)NCCc1c[nH]c2ccccc12 (configuration not stated) | > 128
